Test results taken from patent US20260345838A1, “IDENTIFICATION AND/OR TREATMENT OF CANCER” (CLARITY PHARMACEUTICALS LIMITED, priority 2022, published 2026).
Several values for one entry are separate records, joined by “and”; a condition that tells them apart may be missing. Equal values may be shown once.

Experiments:
prostate cancer = assay: PET imaging in post-radical prostatectomy prostate cancer patients with serial negative PSMA-PET; assay type: in vivo, human; details: FIGS. 7 to 10
Experimental: (§1) A dose of 200 MBq ^64Cu-Sar-BBN was administered to a subject by slow intravenous bolus injection. The subject was imaged by PET/CT and the images analysed to determine the location, size and volume of any cancerous lesions present, which is indicated by the decay products of the ^64Cu radioisotope detected.
All patients received on average 200 MBq of [^64Cu]Cu-SAR-BBN intravenously with 60 minutes for uptake. Patient were scanned at 60-180 minutes post-injection with arms up, from vertex to mid thighs and at each bed position for two minutes. A low dose CT scan was performed with for attenuation correction and anatomical localisation. Comparison of the images obtained from each subject after administration of both ^18FDG and ^64Cu-Sar-BBN can be seen in FIGS. 7 to 10.

[1] = system: metastatic ER+/PR+/HER2− breast cancer; assay: PET imaging in women with metastatic ER+/PR+/HER2− breast cancer; assay type: in vivo, human
Experimental: Example 5—Administration of ^64Cu-Sar-BBN for Radioimaging
as §1
Women with clinical progression of metastatic ER+/PR+/HER2− breast cancer requiring re-staging were administered ^18FDG and images of each patient acquired by PET. Imaging with ^64Cu-Sar-BBN PET (with 200 MBq ^64Cu-Sar-BBN administered by IV injection) was performed within 2 weeks of imaging by ^18FDG. Qualitative interpretation of the PET studies was performed by accredited nuclear medicine physicians. Quantitative analysis was performed using MIM Software, Cleveland. Comparison of the images obtained from each subject after administration of both ^18FDG and ^64Cu-Sar-BBN can be seen in FIGS. 1 to 6 (see Table 1).

[2] = system: metastatic ER+/PR+/HER2− breast cancer; details: compared to triple negative subtypes; cited from earlier work
[3] = 18FDG PET, per patient, listed as FDG

For `O=C(O)CCc1ccc(O)c(CN(CCN(CC(=O)O)Cc2cc(CCC(=O)NCCCCCC(=O)NCCCC[C@H](NC(=O)N[C@@H](CCC(=O)O)C(=O)O)C(=O)O)ccc2O)CC(=O)O)c1.[Ga+3]` [^68Ga-PSMA-11], the lesion detection (prostate cancer) was “serial negative PSMA-PET”.

For `OC[C@H]1OC(O)[C@H]([18F])[C@@H](O)[C@@H]1O` (stereo partly shown) [^18FDG], the “FDG SUVmax” value [1, 3] was 7 (2×) and 20 and <3 and 8 and 11, the “FDG TTV (total tumor volume)” value [1, 3] was 91 and 168 and 0 and 8 and 2 and 504 and the “lesion detection compared with the other imaging” value ([1]; breast cancer patients, FIGS. 1 to 6) was “did not reveal any tumors”. The “number of lesions identified” value ([1]; patient of FIG. 4) was “less than 3”, the “sensitivity of 18FDG-PET for ER+/PR+ breast cancer” value [2] was “lower sensitivity for ER+/PR+ breast cancer, when compared to triple negative” and the lesion detection (prostate cancer) was “failed to identify any recurrent lesions”.
